Where two headings read alike, the source gives them in different places.
What was measured:
caspase-8 = biological target: T1, caspase-8 (Homo sapiens, UniProt Q14790); test: IC50 assay with recombinant caspase-8; assay type: biochemical; details: mean±s.d.
T1 construct: purchased Millipore (Billerica, MA)
Experimental: (§1) Caspase-3 and 8 – The enzyme was pre-incubated with inhibitor in assay buffer (100 mM HEPES pH 7.4, 0.1% CHAPS, 10% Sucrose) for 10 min at 37 °C.
(§2) To determine the IC50 values of the compounds towards δ-secretase, cathepsin-S, cathepsin-L, caspase-3 and caspase-8, purified recombinant enzyme was incubated in appropriate assay buffers in the presence of increasing concentrations of inhibitors. The formation of fluorescent product was monitored in duplicate reactions and the data were fit to appropriate equations to calculate the IC50 values.

[1] = biological target: T2, δ-secretase in Pala cells (Homo sapiens, UniProt Q99538); test: δ-secretase inhibition in intact Pala cells
T2 sequence (Q99538 18-433): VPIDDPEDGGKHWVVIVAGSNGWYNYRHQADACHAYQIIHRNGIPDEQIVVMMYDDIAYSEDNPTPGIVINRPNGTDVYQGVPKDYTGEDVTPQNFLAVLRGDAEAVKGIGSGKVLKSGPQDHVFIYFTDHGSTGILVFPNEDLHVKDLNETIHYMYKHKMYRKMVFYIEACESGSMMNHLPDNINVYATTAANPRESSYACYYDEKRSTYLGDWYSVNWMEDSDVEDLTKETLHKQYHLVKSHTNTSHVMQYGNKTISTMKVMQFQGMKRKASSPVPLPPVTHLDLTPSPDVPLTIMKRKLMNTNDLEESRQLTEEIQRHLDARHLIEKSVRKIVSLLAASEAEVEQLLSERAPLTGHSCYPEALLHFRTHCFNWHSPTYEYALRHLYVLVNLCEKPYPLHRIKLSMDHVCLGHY

cathepsin-S = biological target: T3, cathepsin-S (Homo sapiens, UniProt P25774); test: IC50 assay with recombinant cathepsin-S; assay type: biochemical; details: mean±s.d.
T3 construct: purchased Athens Research and Technology (Athens, GA)
T3 sequence (P25774 115-331, species assumed): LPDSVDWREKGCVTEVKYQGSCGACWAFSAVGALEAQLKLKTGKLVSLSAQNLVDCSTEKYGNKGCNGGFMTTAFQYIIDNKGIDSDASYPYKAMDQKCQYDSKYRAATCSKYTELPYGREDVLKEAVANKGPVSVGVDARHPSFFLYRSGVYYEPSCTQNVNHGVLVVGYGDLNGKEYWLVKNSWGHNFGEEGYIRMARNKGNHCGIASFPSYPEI
Experimental: Cathepsin-S – 100 nM enzyme was pre-incubated with inhibitor in assay buffer (100 mM NaH2PO4 pH 6.5, 100 mM NaCl) for 10 min at 37 °C. The reaction was initiated on addition of 25 μM substrate (Boc-Val-Leu-Lys-AMC (Bachem).
as §2

caspase-3 = biological target: T4, caspase-3 (Homo sapiens, UniProt P42574); test: IC50 assay with recombinant caspase-3; assay type: biochemical; details: mean±s.d.
T4 construct: purchased Millipore (Billerica, MA)
T4 sequence (P42574 29-175 limits assumed): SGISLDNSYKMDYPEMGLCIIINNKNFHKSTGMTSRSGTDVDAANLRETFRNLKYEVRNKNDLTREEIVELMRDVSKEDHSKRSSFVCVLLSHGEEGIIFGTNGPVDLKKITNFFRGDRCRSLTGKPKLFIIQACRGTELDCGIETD
T4 sequence (P42574 176-277 limits assumed): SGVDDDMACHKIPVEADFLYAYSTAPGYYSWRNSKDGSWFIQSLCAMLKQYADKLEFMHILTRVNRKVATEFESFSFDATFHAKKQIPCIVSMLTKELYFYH
Experimental: as §1, §2

δ-secretase [2] = biological target: T5, δ-secretase (Homo sapiens, UniProt Q99538); test: IC50 assay with purified recombinant δ-secretase (AEP), substrate Cbz-Ala-Ala-Asn-AMC; assay type: biochemical
T5 construct: tested with purified active δ-secretase, IC50 values for the top 8 candidates were calculated; purchased Sino Biological (Beijing, China)
T5 sequence (Q99538 18-323 limits assumed): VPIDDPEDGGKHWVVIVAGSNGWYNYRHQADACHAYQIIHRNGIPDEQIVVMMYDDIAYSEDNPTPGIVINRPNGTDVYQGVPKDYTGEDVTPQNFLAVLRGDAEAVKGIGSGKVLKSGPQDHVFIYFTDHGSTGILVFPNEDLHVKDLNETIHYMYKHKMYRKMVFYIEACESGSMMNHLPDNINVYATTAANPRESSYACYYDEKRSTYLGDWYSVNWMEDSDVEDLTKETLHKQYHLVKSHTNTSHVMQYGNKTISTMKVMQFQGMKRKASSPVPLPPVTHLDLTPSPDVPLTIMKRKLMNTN
Experimental: δ-secretase – 50 nM enzyme was pre-incubated with inhibitor in assay buffer (50 mM Sodium Citrate pH 5.5, 0.1% CHAPS, 60 mM Na2HPO4, 1 mM EDTA) for 10 min at 37 °C. The reaction was initiated on addition of 10 μM Cbz-Ala-Ala-Asn-AMC (Bachem).
as §2

cathepsin-L = cathepsin-L (Homo sapiens, UniProt P07711); test: IC50 assay with cathepsin-L; assay type: biochemical; details: mean±s.d.
cathepsin-L, sequence (P07711 114-333, species assumed): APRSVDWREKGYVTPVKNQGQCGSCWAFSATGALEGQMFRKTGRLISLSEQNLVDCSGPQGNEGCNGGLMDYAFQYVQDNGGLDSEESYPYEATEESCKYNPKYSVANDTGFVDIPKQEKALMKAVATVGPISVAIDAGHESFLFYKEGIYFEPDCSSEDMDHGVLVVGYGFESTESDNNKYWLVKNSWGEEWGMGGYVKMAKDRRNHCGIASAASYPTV
Experimental: Cathepsin-L – 100 nM enzyme was pre-incubated with inhibitor in assay buffer (100 mM Sodium Acetate pH 5.5, 1 mM EDTA) for 10 min at 37 °C. The reaction was initiated on addition of 25 μM substrate (D-Val-Leu-Lys-AMC (Bachem).
as §2

δ-secretase [3] = biological target: T5, δ-secretase; test: DTT and L-cysteine reversibility of δ-secretase inhibition; assay type: biochemical; details: 10 mM DTT or L-cysteine, inhibitor at its IC50
[4] = Caco-2 monolayer permeability screen; details: human, Caco-2
Experimental: Supplementary Table 3: Caco-2 permeability and BBB-PAMPA permeability
For CaCo-2 permeability assay, cells were incubated with 10 µM of these reagents in
buffers for 2 h, and the receiver side buffer is removed for analysis by LC/MS/MS. Efflux […]
LLOQ: Lower Limit of Quantification; Papp: apparent permeability.

[5] = Liver microsomal stability, human; details: human, microsomes, 0.5 h, pH 7.4
Experimental: (§3) Supplementary Table 4: Liver microsomal stability
(§4) Compound Species Mean Remaining Parent Mean Remaining Parent
(§5) (with NADPH) (NADPH-free)
(§6) The test agents were incubated in duplicate with microsomes at 37 °C for 30 min. The reaction contained microsomal protein in 100 mM potassium phosphate, 2 mM NADPH, 3 mM MgCl2, pH 7.4. A control was run for each test agent omitting NADPH to detect NADPH-free degradation. Data are reported as % remaining of parent compound. ND, Peak not detected due to bioanalysis issue (poor ionization).

[6] = Liver microsomal stability, mouse; details: mouse, microsomes, 0.5 h, pH 7.4
Experimental: as §3, §4, §5, §6

T1 sequence (Q14790 217-374 limits assumed, species assumed): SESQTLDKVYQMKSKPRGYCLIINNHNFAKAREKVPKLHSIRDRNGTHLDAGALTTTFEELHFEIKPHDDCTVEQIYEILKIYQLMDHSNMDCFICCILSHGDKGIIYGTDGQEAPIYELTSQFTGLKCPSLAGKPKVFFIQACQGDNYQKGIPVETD
T1 sequence (Q14790 385-479 limits assumed, species assumed): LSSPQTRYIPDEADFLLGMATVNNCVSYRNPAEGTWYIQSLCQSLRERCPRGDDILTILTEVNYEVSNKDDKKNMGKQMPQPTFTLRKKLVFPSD

For `Sc1nnc(Nc2ccccc2)s1` [compound BB1], the IC50 (caspase-8) was 28.7 ± 11.2 µM, the IC50 [1] was 1.57 ± 0.14 µM and the “IC50 towards δ-secretase in Pala cells” value ([1]; intact cells, 2 h incubation, mean±s.d.) was “slightly larger IC50 values”. The IC50 (cathepsin-S) was over 200 µM, the IC50 (caspase-3) was over 200 µM and the ligand efficiency (δ-secretase [2]) was 0.75. It also gave an IC50 (δ-secretase [2]; purified active δ-secretase, read-out: IC50 / potency toward δ-secretase) of about 0.13 µM, an IC50 (δ-secretase [2]; purified recombinant enzyme, mean±s.d., read-out: IC50 AEP (δ-secretase)) of 0.13 ± 0.09 µM and an IC50 (cathepsin-L) of 5.66 ± 0.36 µM. For the same compound, the “recovery of δ-secretase activity on addition of reducing agents” value (δ-secretase [3]) was “regained a substantial amount of activity”.

`CNC(=C[N+](=O)[O-])NCCSCc1ccc(CN(C)C)o1` [Ranitidine, reference compound] showed a Papp A→B at 2 h, 10 µM [4] of 0.8 ×10⁻⁶ cm/s.

For `CC(=O)CC(c1ccccc1)c1c(O)c2ccccc2oc1=O` (centres unmarked) [Warfarin, reference compound], the “Mean Remaining Parent (NADPH-free)” value [5] was 104%, the “Mean Remaining Parent (with NADPH)” value [5] was 96% and the Papp A→B at 2 h, 10 µM [4] was 28.5 ×10⁻⁶ cm/s. For the same compound, the Papp B→A at 2 h, 10 µM [4] was 12.6 ×10⁻⁶ cm/s, the “Mean Remaining Parent (NADPH-free)” value [6] was 100% and the “Mean Remaining Parent (with NADPH)” value [6] was 91%.

From publication PMC5378956, “Inhibition of delta-secretase improves cognitive functions in mouse models of Alzheimer's disease” (Nature Communications, 2017)
